# From patent US12209079B2 (GENERAL INCORPORATED ASSOCIATION PHARMA VALLEY PROJECT …, priority 2017, dated 2025)
# Counter-ions that a name gives are not always drawn.
# What was measured:
# TDO in A172 cells = target: T1, TDO in A172 cells (Homo sapiens, UniProt P48775); test: TDO cell-based assay, kynurenine production in A172 cells; details: A 172; final concentration of the compound 10 μM; rate relative to culture without compound
# T1 construct: endogenous in cells; host or cells: A172 cells
# Outline: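 A172 cells were preincubated with compound for 1 h, then given L-tryptophan (final 524 μM) for 24 h at 37 °C. Kynurenine was read at 460 nm after p-dimethylbenzaldehyde/TCA reagent, background-subtracted, and expressed as % of no-compound production.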
# [1] = target: rhIDO (recombinant human IDO) (Homo sapiens, UniProt P14902); test: Enzyme assay using rhIDO (rate of kynurenine production); format: biochemical; details: 2 h; final concentration of the compound 10 μM; rate relative to reaction without compound; read-out: rhIDO-mediated kynurenine production
# Outline: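 Kynurenine formation, expressed as % of uncompounded reaction after background subtraction, was read by absorbance at 490 nm following TCA stop, 50 °C hydrolysis and Ehrlich-type p-dimethylbenzaldehyde staining. Recombinant human IDO with ascorbate/methylene blue/catalase was pre-exposed to compound 10 min, then reacted 120 min at 37 °C after adding 2 mM tryptophan stock.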
# IDO in A431 cells = target: T2, IDO in A431 cells (Homo sapiens, UniProt P14902); test: IDO cell-based assay, kynurenine production in IFN-γ stimulated A431 cells; details: A-431, 24 h; final concentration of the compound 10 μM; rate relative to culture without compound
# T2 construct: endogenous in cells; host or cells: A431 cells, IFN-γ stimulated
# Outline: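 Kynurenine output was read by absorbance at 460 nm after p-dimethylbenzaldehyde/trichloroacetic acid reagent, background-corrected, and given as % of untreated wells. Before the read, cells in 178 μM L-tryptophan medium had 1 h compound preincubation, then 24 h IFN-γ stimulation (added as 100 ng/mL dilution).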
# [2] = target: rhTDO (recombinant human TDO) (Homo sapiens, UniProt P48775); test: Enzyme assay using rhTDO (rate of kynurenine production); format: biochemical; details: 2 h; final concentration of the compound 10 μM; rate relative to reaction without compound; read-out: rhTDO-mediated kynurenine production
# Outline: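 Kynurenine output, as percent of untreated control after background subtraction, read at 490 nm with p-dimethylbenzaldehyde following TCA quench and 15 min heating at 50 °C. Reaction: rhTDO with compound, 10 min preincubation then 120 min at 37 °C, started by 20 mM tryptophan stock, in phosphate/ascorbate/methylene blue/catalase.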
# rhTDO (recombinant human TDO), sequence (P48775 whole entry): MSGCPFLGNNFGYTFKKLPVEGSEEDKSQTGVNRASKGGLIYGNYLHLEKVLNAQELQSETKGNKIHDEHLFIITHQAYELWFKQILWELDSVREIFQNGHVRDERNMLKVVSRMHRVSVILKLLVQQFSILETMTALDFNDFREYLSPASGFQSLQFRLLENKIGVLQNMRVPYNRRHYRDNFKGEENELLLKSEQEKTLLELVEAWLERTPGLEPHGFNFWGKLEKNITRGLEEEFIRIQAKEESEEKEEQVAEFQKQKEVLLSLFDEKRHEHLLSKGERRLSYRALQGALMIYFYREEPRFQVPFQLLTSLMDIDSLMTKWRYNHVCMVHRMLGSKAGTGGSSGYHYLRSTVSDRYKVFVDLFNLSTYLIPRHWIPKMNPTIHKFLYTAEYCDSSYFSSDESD
# T1 sequence (P48775 whole entry): as above
# T2 sequence (P14902 whole entry): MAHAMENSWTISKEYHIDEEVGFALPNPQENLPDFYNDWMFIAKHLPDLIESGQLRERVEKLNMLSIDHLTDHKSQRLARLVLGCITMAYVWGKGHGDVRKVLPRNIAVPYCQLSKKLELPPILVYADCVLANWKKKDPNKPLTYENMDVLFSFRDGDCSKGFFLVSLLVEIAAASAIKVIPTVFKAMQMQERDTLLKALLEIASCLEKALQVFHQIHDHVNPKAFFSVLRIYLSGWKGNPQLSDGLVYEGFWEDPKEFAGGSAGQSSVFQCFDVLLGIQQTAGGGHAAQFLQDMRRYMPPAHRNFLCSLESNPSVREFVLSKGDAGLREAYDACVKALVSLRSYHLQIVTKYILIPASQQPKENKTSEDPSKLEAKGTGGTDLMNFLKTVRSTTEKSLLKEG
# rhIDO (recombinant human IDO), sequence (P14902 whole entry): as above
Compound,remaining activity at 10 µM (TDO in A172 cells) [%],remaining activity at 10 µM [1] [%],remaining activity at 10 µM (IDO in A431 cells) [%],remaining activity at 10 µM [2] [%]
"N=C(N)SCc1cccnc1CSC(=N)N [Compound 34, Pyridine-2,3-diylbis(methylene) dicarbamimidothioate dihydrobromide]",47,25,29,27
"N#Cc1ccc(CNC(=O)c2ccc(Br)cc2C[Se]C(=N)N)cc1 [Compound 113, 5-Bromo-2-((4-cyanobenzyl)carbamoyl)benzyl carbamimidoselenoate hydrobromide]",44,92,73,58
"N=C(N)SCc1cc(Br)ccc1C(=O)NCC1CCCCC1 [Compound 74, 5-Bromo-2-((cyclohexylmethyl)carbamoyl)benzyl carbamimidothioate hydrobromide]",47,70,75,29
"N=C(N)[Se]Cc1ccccc1C[Se]C(=N)N [Compound 108, 1,2-Phenylenebis(methylene) dicarbamimidoselenoate dihydrobromide]",41,51,5,55
"CNC(=O)c1ccc(C#N)cc1CSC(=N)N [Compound 77, 5-Cyano-2-(methylcarbamoyl)benzyl carbamimidothioate hydrobromide]",89,74,103,101
"CNC(=O)Cc1ccccc1CS/C(N)=N/c1ccc(Br)cc1 [Compound 79, 2-(2-(Methylamino)-2-oxoethyl)benzyl (E)-N′-(4-bromophenyl)carbamimidothioate hydrobromide]",38,90,60,34
"COc1ccc(/N=C(\N)SCc2cc(Cl)c(Cl)cc2CS/C(N)=N/c2ccc(OC)cc2)cc1 [Compound 124, (4,5-Dichloro-1,2-phenylene)bis(methylene) (E,E)-bis(N′-(4-methoxyphenyl)carbamimidothioate) dihydrobromide]",0,-1,10,20
"N#Cc1ccc(CNC(=O)c2ncccc2CSC(=N)N)cc1 [Compound 99, (2-((4-Cyanobenzyl)carbamoyl)pyridin-3-yl)methyl carbamimidothioate hydrobromide]",106,96,102,75
"Brc1ccc(CCN2CN=C(SCc3ccccc3CSC3=NCN(CCc4ccc(Br)cc4)CN3)NC2)cc1 [Compound 20, 1,2-bis(((5-(4-bromophenethyl)-1,4,5,6-tetrahydro-1,3,5-triazin-2-yl)thio)methyl)benzene]",0,27,6,44
"Clc1cc(CSC2=NCN(CCC3CCCCC3)CN2)c(CSC2=NCN(CCC3CCCCC3)CN2)cc1Cl [Compound 61, 6,6′-(((4,5-Dichloro-1,2-phenylene)bis(methylene))bis(sulfanediyl))bis(3-(2-cyclohexylethyl)-1,2,3,4-tetrahydro-1,3,5-triazine)]",-11,7,1,4
"Fc1ccc(CSC2=NCN(Cc3ccc(F)c(Cl)c3)CN2)c(CSC2=NCN(Cc3ccc(F)c(Cl)c3)CN2)c1 [Compound 146, 6,6′-(((4-Fluoro-1,2-phenylene)bis(methylene))bis(sulfanediyl))bis(3-(3-chloro-4-fluorobenzyl)-1,2,3,4-tetrahydro-1,3,5-triazine)]",17,54,16,26
"Fc1ccc(CSC2=NCN(CCc3ccc(C(F)(F)F)cc3)CN2)c(CSC2=NCN(CCc3ccc(C(F)(F)F)cc3)CN2)c1 [Compound 140, 6,6′-(((4-Fluoro-1,2-phenylene)bis(methylene))bis(sulfanediyl))bis(3-(4-(trifluoromethyl)phenethyl)-1,2,3,4-tetrahydro-1,3,5-triazine)]",9,34,15,16
"FC(F)(F)c1ccc(CN2CN=C(SCc3ccccc3CSC3=NCN(Cc4ccc(C(F)(F)F)cc4)CN3)NC2)cc1 [Compound 42, 1,2-Bis(((5-(4-(trifluoromethyl)benzyl)-1,4,5,6-tetrahydro-1,3,5-triazin-2-yl)thio)methyl)benzene]",2,68,6,41
"C/N=C(\NC)SCc1ccccc1CS/C(=N/C)NC [Compound 8, 1,2-phenylenebis(methylene) (E,E)-bis(N,N′-dimethylcarbamimidothioate) dihydrodhloride]",20,77,10,52
"c1csc(CCN2CN=C(SCc3ccccc3CSC3=NCN(CCc4cccs4)CN3)NC2)c1 [Compound 40, 1,2-Bis (((5-(2-(thiophen-2-yl)ethyl)-1,4,5,6-tetrahydro-1,3,5-triazin-2-yl)thio)methyl)benzene]",1,34,9,29
"Fc1ccc(CN2CN=C(SCc3ccccc3CSC3=NCN(Cc4ccc(F)c(Cl)c4)CN3)NC2)cc1Cl [Compound 145, 1,2-Bis(((5-(3-Chloro-4-fluorobenzyl)-1,4,5,6-tetrahydro-1,3,5-triazin-2-yl)thio)methyl)benzene]",12,69,18,40
"N=C(N)SCc1cc(Br)ccc1C(=O)NCC1CC1 [Compound 93, 5-Bromo-2-((cyclopropylmethyl)carbamoyl)benzyl carbamimidothioate hydrobromide]",49,103,124,53
"N=C(N)SCc1c(F)c(F)c(F)c(F)c1CSC(=N)N [Compound 6, (perfluoro-1,2-phenylene)bis(methylene) dicarbamimidothioate dihydrobromide]",74,15,75,9
"Cc1ccc(CNC(=O)c2ccc(Br)cc2CSC(=N)N)cc1 [Compound 90, 5-Bromo-2-((4-methylbenzyl)carbamoyl)benzyl carbamimidothioate hydrobromide]",51,90,96,45
"COc1ccc(/N=C(\N)SCc2ccc(F)cc2CS/C(N)=N/c2ccc(OC)cc2)cc1 [Compound 128, (4-Fluoro-1,2-phenylene)bis(methylene) (E,E)-bis(N′-(4-methoxyphenyl)carbamimidothioate) dihydrobromide]",8,3,11,14
